Measurements from patent US20090192135A1, “Human Niemann Pick C1-Like 1 Gene (NPC1L1) Polymorphisms and Methods of Use Thereof” (SCHERING CORPORATION, priority 2005, published 2009).

Molecular target: T1, NPC1L1 (Homo sapiens, UniProt Q9UHC9)
T1 construct: from tissue; host or cells: small intestine of hypercholesterolemic patients (in vivo, clinical trial)
T1 sequence (Q9UHC9 22-1332 isoform Q9UHC9-2 limits assumed): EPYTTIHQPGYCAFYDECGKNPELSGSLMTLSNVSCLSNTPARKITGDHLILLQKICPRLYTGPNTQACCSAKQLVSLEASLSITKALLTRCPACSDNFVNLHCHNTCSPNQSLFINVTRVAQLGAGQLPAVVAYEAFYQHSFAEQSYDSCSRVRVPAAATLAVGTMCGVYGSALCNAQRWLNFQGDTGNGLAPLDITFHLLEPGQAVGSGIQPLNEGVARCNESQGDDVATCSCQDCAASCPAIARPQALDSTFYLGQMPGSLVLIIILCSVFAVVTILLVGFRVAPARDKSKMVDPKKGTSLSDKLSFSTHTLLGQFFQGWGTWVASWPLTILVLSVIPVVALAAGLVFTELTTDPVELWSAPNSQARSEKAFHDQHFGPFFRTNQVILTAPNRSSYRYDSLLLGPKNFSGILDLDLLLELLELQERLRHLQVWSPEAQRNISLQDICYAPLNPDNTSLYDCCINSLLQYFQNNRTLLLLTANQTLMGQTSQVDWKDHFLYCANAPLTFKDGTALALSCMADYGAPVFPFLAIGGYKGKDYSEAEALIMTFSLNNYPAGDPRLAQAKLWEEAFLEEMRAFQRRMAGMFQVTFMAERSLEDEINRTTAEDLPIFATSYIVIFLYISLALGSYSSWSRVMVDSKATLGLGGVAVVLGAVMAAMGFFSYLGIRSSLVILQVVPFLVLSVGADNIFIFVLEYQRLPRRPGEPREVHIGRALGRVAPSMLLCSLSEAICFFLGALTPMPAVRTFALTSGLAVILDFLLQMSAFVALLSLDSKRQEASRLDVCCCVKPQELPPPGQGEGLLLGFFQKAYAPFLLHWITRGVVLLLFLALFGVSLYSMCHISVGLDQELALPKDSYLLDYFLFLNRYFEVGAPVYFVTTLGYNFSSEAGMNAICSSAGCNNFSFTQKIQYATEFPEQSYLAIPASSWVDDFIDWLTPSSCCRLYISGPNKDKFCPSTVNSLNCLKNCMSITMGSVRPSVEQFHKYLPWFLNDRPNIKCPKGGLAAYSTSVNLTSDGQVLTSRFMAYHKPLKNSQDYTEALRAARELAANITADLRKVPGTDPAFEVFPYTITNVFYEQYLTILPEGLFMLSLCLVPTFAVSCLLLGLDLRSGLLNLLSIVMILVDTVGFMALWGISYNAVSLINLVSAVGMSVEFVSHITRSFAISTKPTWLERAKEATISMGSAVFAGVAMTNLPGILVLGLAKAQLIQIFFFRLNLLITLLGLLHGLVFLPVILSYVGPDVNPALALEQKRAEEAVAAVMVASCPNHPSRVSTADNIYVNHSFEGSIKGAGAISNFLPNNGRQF
Test: EASE trial: LDL-C response to six weeks of ezetimibe 10 mg/day added to stable statin therapy, analysed by NPC1L1 genotype/haplotype
Type: in vivo
Settings: for Least-Squares (adjusted) Mean (Stderr), percent change in LDL-C: extreme responders; for Least-Squares adjusted Mean (n/Std error), percent change from baseline LDL-C: EASE cohort N = 1195; for Least-Squares (adjusted) Mean (n,/Stderr), percent change in LDL-C: Extreme responders (<10th or >90th percentile) N = 239
Protocol: Genotyping assays were developed for a number of novel and known common variants with minor allele frequencies greater than 4% that were identified in Example 1. Genetic association analysis was performed with these SNPs in a clinical trial cohort (EASE), described below, to assess whether DNA sequence variants in NPC1L1 are associated with changes in the levels of a variety of plasma cholesterol components in hypercholesterolemia patients in response to pharmacotherapy with ezetimibe and statins as compared to patients treated with a statin and placebo.
To study whether variations in NPC1L1 were associated with response to ezetimibe added to statin therapy, a study population was derived from the Ezetimibe Add-On to Statin for Effectiveness (EASE) Trial (Pearson et al., (2005) Mayo Clinic Proceedings, In Press). The EASE trial was a community-based, randomized, double-blind, placebo controlled study to evaluate the effects of six weeks of ezetimibe, 10 mg/day, added on to a stable regimen of statin therapy, on lipid biomarkers in hypercholesterolemic patients whose LDL-C levels exceeded the National Cholesterol Education Program (NCEP) Adult Treatment Panel (ATP) m guidelines for their coronary heart disease (CHD) risk category. At enrollment, patients taking a stable dose of statin (any dose, any brand) and following a NCEP Step 1 diet or similar cholesterol-lowering diet for at least six weeks prior to entry into the study were randomized to either the ezetimibe (n=2020, 2009 received the treatment) or placebo (n=1010, 1009 received the treatment) arm. From the ezetimibe group, 1208 patients provided consent for genomic analysis and were included in this study. A series of clinical measures corresponding to various cardiovascular risk factors were measured from samples obtained from all trial participants and are summarized by Pearson et al., supra.
Twenty one SNPs from Table 4 (Example 1) were converted to valid genotyping assays, thirteen of which had allele frequencies greater than 2% in all EASE sub-populations. TaqMan Allelic Discrimination assays (Livak, (1999) Genet. Anal. 14:143-49) were performed using Primer Express software and the Assay-by-Design service offered by Applied Biosystems (Foster City, Calif.). […] All probe/primer sets were designed to function using universal reaction and cycling conditions.
The twenty one selected SNPs were genotyped in 1,208 individuals participating in the ezetimibe+statin treatment arm of the EASE trial. A series of clinical measures corresponding to various cardiovascular risk factors were taken on all trial participants (Tables 4a-d). Thirteen selected SNPs genotyped in the EASE cohort were confirmed as having common allele frequencies in this cohort, i.e., an allele frequency of greater than 2% in all EASE sub-populations. […] This could reflect the increased power in the larger EASE cohort to make such detections (see Table 5).
The mean (SD) for total plasma cholesterol, HDL cholesterol (HDL-C), and LDL cholesterol (LDL-C) was 211.0 (34.9), 48.6 (11.5), and 129.1 (30.0) mg/dL, respectively (Pearson et al., supra). […] The distribution of these measurements was similar in the subjects enrolled in this genetic study (Pearson et al., supra). […] No significant associations were found between these response predictive variables and any of the tagging SNPs.
Genetic association analysis was carried out in the EASE cohort with LDL-C response to ezetimibe treatment considered as the primary outcome variable. Individual SNPs, haplotypes, and haplotype combinations were the principal explanatory variables used in the analyses. General linear models were used to estimate the effects of genotypes, haplotypes, and diplotypes on the LDL-C response phenotype. Baseline LDL-C levels, sex, age, and race were investigated to determine if they gave rise to significant effects. Baseline LDL-C levels associated with significant effects in all models and were therefore included in all analyses. […]

[1] = Caucasian ethnic subgroup, g.-18C > A C/A

What does the source list for O=C1[C@H](CC[C@H](O)c2ccc(F)cc2)[C@@H](c2ccc(O)cc2)N1c1ccc(F)cc1 [ezetimibe, 1-(4-fluorophenyl)-3(R)-[3-(4-fluorophenyl)-3(S)-hydroxypropyl]-4(S)-(4-hydroxyphenyl)-2-azetidinone]?
Least-Squares (adjusted) Mean (Stderr), percent change in LDL-C [1]: −32.81 (3.83) %; Least-Squares (adjusted) Mean (Stderr), percent change in LDL-C (Caucasian ethnic subgroup, g.1679C > G C/G): −26.61 (3.58) %; Least-Squares (adjusted) Mean (Stderr), percent change in LDL-C (Caucasian ethnic subgroup, g.1679C > G G/G): −39.00 (10.81) %; Least-Squares adjusted Mean (Std error), percent change from baseline LDL-C (Caucasian ethnic subgroup, g.-18C > A A/A): −27.19 (3.49) %; Least-Squares adjusted Mean (Std error), percent change from baseline LDL-C [1]: −28.22 (0.96) %; Least-Squares adjusted Mean (Std error), percent change from baseline LDL-C (Caucasian ethnic subgroup, g.-18C > A C/C): −24.34 (0.60) %; Odds Ratio, extreme responder association with SNP (Caucasian ethnic subgroup, g.-18C > A, 95% CI 1.27 to 4.39): 2.36; Least-Squares adjusted Mean (Std error), percent change from baseline LDL-C (Caucasian ethnic subgroup, g.-133A > G A/A): −26.59 (0.73) %; Least-Squares adjusted Mean (Std error), percent change from baseline LDL-C (Caucasian ethnic subgroup, g.-133A > G A/G): −24.78 (0.77) %; Least-Squares adjusted Mean (Std error), percent change from baseline LDL-C (Caucasian ethnic subgroup, g.-133A > G G/G): −22.80 (1.72) %; Least-Squares adjusted Mean (Std error), percent change from baseline LDL-C (Caucasian ethnic subgroup, g.1679C > G (L272L) C/C): −24.66 (0.65) %; Least-Squares adjusted Mean (Std error), percent change from baseline LDL-C (Caucasian ethnic subgroup, g.1679C > G (L272L) C/G): −26.58 (0.85) %; Least-Squares adjusted Mean (Std error), percent change from baseline LDL-C (Caucasian ethnic subgroup, g.1679C > G (L272L) G/G): −28.18 (2.51) %; Least-Squares adjusted Mean (Std error), percent change from baseline LDL-C (Caucasian ethnic subgroup, g.19224G > A A/A): −31.64 (6.56) %; Least-Squares adjusted Mean (Std error), percent change from baseline LDL-C (Caucasian ethnic subgroup, g.19224G > A G/A): −24.81 (1.31) %; Least-Squares adjusted Mean (Std error), percent change from baseline LDL-C (Caucasian ethnic subgroup, g.19224G > A G/G): −25.56 (0.55) %; Least-Squares adjusted Mean (Std error), percent change from baseline LDL-C (Caucasian ethnic subgroup, g.19259T > C C/C): −24.95 (2.01) %; Least-Squares adjusted Mean (Std error), percent change from baseline LDL-C (Caucasian ethnic subgroup, g.19259T > C T/C): −25.61 (0.84) %; Least-Squares adjusted Mean (Std error), percent change from baseline LDL-C (Caucasian ethnic subgroup, g.19259T > C T/T): −25.44 (0.67) %; Least-Squares adjusted Mean (Std error), percent change from baseline LDL-C (Caucasian ethnic subgroup, g.28650A > G A/A): −24.63 (0.64) %; Least-Squares adjusted Mean (Std error), percent change from baseline LDL-C (Caucasian ethnic subgroup, g.28650A > G A/G): −26.90 (0.87) %; Least-Squares adjusted Mean (Std error), percent change from baseline LDL-C (Caucasian ethnic subgroup, g.28650A > G G/G): −26.52 (2.57) %; Least-Squares adjusted Mean (n/Std error), percent change from baseline LDL-C (g.-18C > A A/A): −27.27 (22/3.61) %; Least-Squares adjusted Mean (n/Std error), percent change from baseline LDL-C (g.-18C > A C/A): −27.85 (298/0.98) %; Least-Squares adjusted Mean (n/Std error), percent change from baseline LDL-C (g.-18C > A C/C): −24.16 (875/0.57) %; Least-Squares adjusted Mean (n/Std error), percent change from baseline LDL-C (g.-133A > G A/A): −25.92 (629/0.68) %; Least-Squares adjusted Mean (n/Std error), percent change from baseline LDL-C (g.-133A > G A/G): −24.58 (477/0.78) %; Least-Squares adjusted Mean (n/Std error), percent change from baseline LDL-C (g.-133A > G G/G): −22.56 (89/1.80) %; Least-Squares adjusted Mean (n/Std error), percent change from baseline LDL-C (g.1679C > G C/C): −24.50 (723/0.63) %; Least-Squares adjusted Mean (n/Std error), percent change from baseline LDL-C (g.1679C > G C/G): −25.77 (417/0.83) %; Least-Squares adjusted Mean (n/Std error), percent change from baseline LDL-C (g.1679C > G G/G): −28.77 (55/2.29) %; Least-Squares adjusted Mean (n/Std error), percent change from baseline LDL-C (g.19224G > A A/A): −31.64 (/6.94) %; Least-Squares adjusted Mean (n/Std error), percent change from baseline LDL-C (g.19224G > A G/A): −25.07 (/1.34) %; Least-Squares adjusted Mean (n/Std error), percent change from baseline LDL-C (g.19224G > A G/G): −25.11 (/0.53) %; Least-Squares adjusted Mean (n/Std error), percent change from baseline LDL-C (g.19259T > C C/C): −26.38 (/1.98) %; Least-Squares adjusted Mean (n/Std error), percent change from baseline LDL-C (g.19259T > C T/C): −25.01 (/0.82) %; Least-Squares adjusted Mean (n/Std error), percent change from baseline LDL-C (g.19259T > C T/T): −25.07 (/0.64) %; Least-Squares adjusted Mean (n/Std error), percent change from baseline LDL-C (g.28650A > G A/A): −24.40 (/0.60) %; Least-Squares adjusted Mean (n/Std error), percent change from baseline LDL-C (g.28650A > G A/G): −26.50 (/0.89) %; Least-Squares adjusted Mean (n/Std error), percent change from baseline LDL-C (g.28650A > G G/G): −27.19 (/2.65) %; mean LDL-C change from baseline (EASE cohort, heterozygous for the minor allele of g.−18C>A (298/1195)): 27.8%; mean LDL-C change from baseline (EASE cohort, homozygous for the common allele of g.−18C>A (n=875/1195)): 24.2%; mean change in LDL-C (EASE cohort, homozygous for the minor allele of g.−18C>A (n=22/1195)): 27.3%; Least-Squares (adjusted) Mean (n,/Stderr), percent change in LDL-C (g.-18C > A C/A): −33.98 (62/4.05) %; Least-Squares (adjusted) Mean (n,/Stderr), percent change in LDL-C (g.-18C > A C/C): −16.85 (177/2.40) %
